Values quoted from earlier work, collected in patent US8134031B2, “Extraction process for aldehyde product separation and catalyst recovery” (Dow Global Technologies LLC, priority 2007, dated 2012).
Counter-ions that a name gives are not always drawn.

Details: 22° C.; experimental value (Yaw's Handbook)

Compound	Solubility in water
CCCC(=O)OCC [Ethyl butyrate]	6168 ppmw
CCCOC=O [Propyl formate]	22000 ppmw

Same assay, conditions: 25° C.

Compound	H2O solubility
CCCCCCC [Heptane]	2.24 ppmw
CCCCCC [Hexane]	13.3 ppmw
C=CCCCCCC [1-Octene]	4.10 ppm

Same assay, conditions: 25° C.; estimated value (Yaw's Handbook)

Solubility in water	Compound
28212 ppmw	CCC(C)C=O (stereo not drawn) [2-Methylbutanal]
25882 ppmw	CCC(O)C(C)C (stereo not drawn) [2-Methyl-3-pentanol]
27392 ppmw	CC(C)CC=O [3-Methylbutanal]
22865 ppmw	CCC(=O)C(C)C [Ethyl isopropyl ketone]
16787 ppmw	CCCOC(C)=O [Propyl acetate]

Same assay, conditions: 25° C.; experimental value (Yaw's Handbook)

Solubility in water	Compound
34000 ppmw	CCC(=O)CC [Diethyl ketone]
45000 ppmw	CCCC(C)O (stereo not drawn) [2-Pentanol]
52000 ppmw	CCC(O)CC [3-Pentanol]
11250 ppmw	CC(C)OC(C)C [Diisopropyl ether]
13.3 ppmw	CCCCCC [Hexane]
56000 ppmw	CC(C)C(C)O (stereo not drawn) [3-Methyl-2-butanol]
1516 ppmw	CCCCCCC=O [1-Heptanal]
60800 ppmw	CC(=O)C(C)C [Methyl isopropyl ketone]
22000 ppmw	CCOC(=O)CC [Ethyl propanoate]
14700 ppmw	CCCC(=O)CC [3-Hexanone]
11700 ppmw	CCCCC=O [Pentanal]
73720 ppmw	CCOC(C)=O [Ethyl acetate]
27000 ppmw	CC(C)CCO [3-Methyl-1-butanol]
22000 ppmw	CCCCCO [1-Pentanol]
16400 ppmw	CCCCC(C)=O [2-Hexanone]
55360 ppmw	CCCC(C)=O [Methyl propyl ketone]

Compound	Solubility in water
CC(=O)OC(C)C [Isopropyl acetate]	29000 ppmw
CCCCCCC [Heptane]	2.24 ppmw
O=C1CCCCC1 [Cyclohexanone]	93190 ppmw
CCC(C)CO (stereo not drawn) [2-Methyl-1-butanol]	30000 ppmw
C=CCCCCCC [1-Octene]	4.10 ppmw
CCCC(=O)OC [Methyl butyrate]	15000 ppmw
C=C(C)C(C)=O [Methyl isopropenyl ketone]	47000 ppmw
